Test results taken from patent US20220089578A1, “COMPOUNDS AS GLP-1R AGONISTS” (Terns Pharmaceuticals, Inc., priority 2020, published 2022).

Target: human GLP-1R (Homo sapiens, UniProt P43220)
Test: GLP-1R Cell Assay 1: cAMP Hunter CHO-K1 GLP1R Gs cell line, HitHunter cAMP assay
Assay type: cell-based
Settings: cAMP Hunter CHO-K1 GLP1R Gs cells, percent activity normalized to Exendin-4
Procedure: GLP-1R mediated agonist activity was determined using the cAMP Hunter CHO-K1 GLP1R Gs cell line (DiscoverX, cat# 95-0062C2), a stable CHO-K1 derived cell lines overexpressing naturally Gs coupled wild-type human GLP-1R (accession number: NM_002062.3). GLP-1R agonism in this cell line was detected by measuring cellular cAMP levels using the HitHunter cAMP assay kit (cat# 90-0075SM2), a homogenous, gain-of-signal competitive immune assay based on Enzyme Fragment Complementation (EFC) technology. In this system cellular cAMP competes with exogenous labeled cAMP (ED-cAMP) for binding to an anti-cAMP antibody. […] The luminescent signal is directly proportional to the amount of cellular cAMP.
For compound testing, cells were seeded in a total volume of 20 μL in white walled, 384-well microplates and incubated at 37° C. prior to compound testing. Prior to compound addition, cell culture media was removed by aspiration and replaced with 15 pt reagent buffer (2:1 HBSS/10 mM HEPES: cAMP XS+Ab reagent). Compounds were dissolved in DSMO and serially diluted (3-fold) prior to final dilution to 4X in assay buffer. Samples (5 μL) were added to cells and incubated at 37° C. for […] prior to 1 hour incubation with 20 pt cAMP XS+ED/CL lysis reagent and 3 hour incubation with 20 μL cAMP XS+EA reagent at room temperature. Microplates were read on a PerkinElmer Envision instrument. Compound activity was analyzed using CBIS data analysis suite (ChemInnovation). Percent activity was calculated based on duplicate assay runs and normalized to the positive control Exendin-4, a GLP-1R peptide agonist, using the following formula: […]
The effective compound concentration resulting in 50% response (EC50) was determined by non-linear regression analysis of dose-response curves.

Chain of human GLP-1R (P43220 24-463): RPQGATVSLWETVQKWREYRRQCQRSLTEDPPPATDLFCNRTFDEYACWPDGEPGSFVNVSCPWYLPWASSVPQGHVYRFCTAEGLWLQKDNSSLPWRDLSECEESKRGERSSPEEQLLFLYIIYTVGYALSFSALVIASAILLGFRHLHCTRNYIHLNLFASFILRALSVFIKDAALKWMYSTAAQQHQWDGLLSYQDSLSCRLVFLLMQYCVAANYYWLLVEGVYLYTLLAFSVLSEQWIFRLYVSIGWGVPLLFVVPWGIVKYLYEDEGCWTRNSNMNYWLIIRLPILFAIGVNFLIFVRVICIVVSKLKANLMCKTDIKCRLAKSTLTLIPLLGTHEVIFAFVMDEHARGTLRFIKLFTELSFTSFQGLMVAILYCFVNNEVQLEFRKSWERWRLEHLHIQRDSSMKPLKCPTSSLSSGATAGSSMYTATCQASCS

| Compound | EC50 (Table 2) [nM] | EC50 (Table 3) [nM] |
| --- | --- | --- |
| N#Cc1ccc(COc2cccc(C3CCN([C@@H]4CCn5c4nc4ccc(C(=O)O)cc45)CC3)n2)c(F)c1 (single isomer, unassigned) [Compound 6-P1] | 248 | – |
| N#Cc1ccc(COc2cccc(C3CCN([C@H]4CCn5c4nc4ccc(C(=O)O)cc45)CC3)n2)c(F)c1 (single isomer, unassigned) [Compound 6-P2] | > 500 | – |
| N#Cc1ccc(COc2cccc(C3CCN([C@H]4COCCn5c4nc4ccc(C(=O)O)cc45)CC3)n2)c(F)c1 (single isomer, unassigned) [Compound 7-P1] | 5.19 | – |
| N#Cc1ccc(COc2cccc(C3CCN([C@@H]4COCCn5c4nc4ccc(C(=O)O)cc45)CC3)n2)c(F)c1 (single isomer, unassigned) [Compound 7-P2] | > 500 | – |
| C[C@H]1COC[C@H](N2CCC(c3cccc(OCc4ccc(C#N)cc4F)n3)CC2)c2nc3ccc(C(=O)O)cc3n21 (single isomer, unassigned) [Compound 8-P1] | > 500 | – |
| C[C@H]1COC[C@@H](N2CCC(c3cccc(OCc4ccc(C#N)cc4F)n3)CC2)c2nc3ccc(C(=O)O)cc3n21 (single isomer, unassigned) [Compound 8-P2] | 82.1 | – |
| N#Cc1ccc(COc2cccc([C@@]34CCN(Cc5nc6ccc(C(=O)O)cc6n5C[C@@H]5CCO5)C[C@@H]3C4)n2)c(F)c1 (single isomer, unassigned) [Compound 9-P1] | 0.171 | – |
| C[C@@]1(c2cccc(OCc3ccc(C#N)cc3F)n2)CCN(Cc2nc3ccc(C(=O)O)cc3n2C[C@@H]2CCO2)C1 (single isomer, unassigned) [Compound 20-P1] | > 500 | – |
| C[C@]1(c2cccc(OCc3ccc(C#N)cc3F)n2)CCN(Cc2nc3ccc(C(=O)O)cc3n2C[C@@H]2CCO2)C1 (single isomer, unassigned) [Compound 20-P2] | 166 | – |
| O=C(O)c1ccc2nc(CN3CCC(n4nccc4COc4ccccc4)CC3)n(C[C@@H]3CCO3)c2c1 (single isomer, unassigned) [Compound 26-P2] | > 500 | – |
| O=C(O)c1ccc2nc(CN3CC[C@@]4(c5cccc(OCc6nc7ccccc7s6)n5)C[C@H]4C3)n(C[C@@H]3CCO3)c2c1 (single isomer, unassigned) [Compound 104-P1] | 4.91 | – |
| O=C(O)c1ccc2nc(CN3CC[C@]4(c5cccc(OCc6nc7ccccc7s6)n5)C[C@@H]4C3)n(C[C@@H]3CCO3)c2c1 (single isomer, unassigned) [Compound 104-P2] | 8.12 | – |
| CCn1cncc1Cn1c(CN2CC[C@@]3(c4cccc(OCc5ccc(C#N)cc5F)n4)C[C@H]3C2)nc2ccc(C(=O)O)cc21 (single isomer, unassigned) [Compound 121-P1] | 0.0329 | – |
| CCn1cncc1Cn1c(CN2CC[C@]3(c4cccc(OCc5ccc(C#N)cc5F)n4)C[C@@H]3C2)nc2ccc(C(=O)O)cc21 (single isomer, unassigned) [Compound 121-P2] | 0.0386 | – |
| O=C(O)c1ccc2nc(CN3CC[C@@]4(c5cccc(OCc6ccc(Cl)cc6Cl)n5)C[C@H]4C3)n(C[C@@H]3CCO3)c2c1 (single isomer, unassigned) [Compound 126-P1] | 0.174 | – |
| O=C(O)c1ccc2nc(CN3CC[C@]4(c5cccc(OCc6ccc(Cl)cc6Cl)n5)C[C@@H]4C3)n(C[C@@H]3CCO3)c2c1 (single isomer, unassigned) [Compound 126-P2] | 0.373 | – |
| N#Cc1ccc(COc2cccc(N3CCN(Cc4nc5ccc(C(=O)O)cc5n4C[C@@H]4CCS4(=O)=O)CC3)n2)c(F)c1 (single isomer, unassigned) [Compound 140-P1] | 0.571 | – |

| Compound | EC50 (Table 2) [nM] | EC50 (Table 3) [nM] |
| --- | --- | --- |
| N#Cc1ccc(COc2cccc(N3CCN(Cc4nc5ccc(C(=O)O)cc5n4CC4CCS4(=O)=O)CC3)n2)c(F)c1 (single isomer, unassigned) [Compound 140-P2] | 0.17 | – |
| N#Cc1ccc2c(c1)CCC[C@H]2Oc1cccc(C2CCN(Cc3nc4ccc(C(=O)O)cc4n3C[C@@H]3CCO3)CC2)n1 (single isomer, unassigned) [Compound 146-P1] | – | > 500 |
| N#Cc1ccc2c(c1)CCC[C@@H]2Oc1cccc(C2CCN(Cc3nc4ccc(C(=O)O)cc4n3C[C@@H]3CCO3)CC2)n1 (single isomer, unassigned) [Compound 146-P2] | – | 7.02 |
| N#Cc1ccc([C@H]2CCc3c(cccc3N3CCN(Cc4nc5ccc(C(=O)O)cc5n4C[C@@H]4CCO4)CC3)O2)c(F)c1 (single isomer, unassigned) [Compound 151-P1] | – | 261 |
| N#Cc1ccc([C@@H]2CCc3c(cccc3N3CCN(Cc4nc5ccc(C(=O)O)cc5n4C[C@@H]4CCO4)CC3)O2)c(F)c1 (single isomer, unassigned) [Compound 151-P2] | – | > 500 |
| N#Cc1ccc(COc2ncccc2[C@@]23CCN(Cc4nc5ccc(C(=O)O)cc5n4CC4CCO4)C[C@@H]2C3)c(F)c1 (single isomer, unassigned) [Compound 167, 2-((6-(2-((4-cyano-2-fluorobenzyl)oxy)pyridin-3-yl)-3-azabicyclo[4.1.0]heptan-3-yl)methyl)-1-(oxetan-2-ylmethyl)-1H-benzo[d]imidazole-6-carboxylic acid] | – | 266 |
| O=C(O)c1ccc2nc(CN3CCN(c4cccc(OCC5CCCCC5)n4)CC3)n(C[C@@H]3CCO3)c2c1 [Compound 1, (S)-2-((4-(6-(cyclohexylmethoxy)pyridin-2-yl)piperazin-1-yl)methyl)-1-(oxetan-2-ylmethyl)-1H-benzo[d]imidazole-6-carboxylic acid] | 42.5 | – |
| N#Cc1ccc2c(c1)CCN(c1cccc(N3CCN(Cc4nc5ccc(C(=O)O)cc5n4C[C@@H]4CCO4)CC3)n1)CC2 [Compound 2, (S)-2-((4-(6-(7-cyano-4,5-dihydro-1H-benzo[d]azepin-3(2H)-yl)pyridin-2-yl)piperazin-1-yl)methyl)-1-(oxetan-2-ylmethyl)-1H-benzo[d]imidazole-6-carboxylic acid] | > 500 | – |
| Cn1cnc2cc(COc3cccc(N4CCN(Cc5nc6ccc(C(=O)O)cc6n5C[C@@H]5CCO5)CC4)n3)ccc21 [Compound 3, (S)-2-((4-(6-((1-methyl-1H-benzo[d]imidazol-5-yl)methoxy)pyridin-2-yl)piperazin-1-yl)methyl)-1-(oxetan-2-ylmethyl)-1H-benzo[d]imidazole-6-carboxylic acid] | 9.05 | – |
| N#Cc1cc(F)c2c(c1)CCC(c1cccc(N3CCN(Cc4nc5ccc(C(=O)O)cc5n4C[C@@H]4CCO4)CC3)n1)C2 (stereo partly drawn) [Compound 4, 2-((4-(6-(6-cyano-8-fluoro-1,2,3,4-tetrahydronaphthalen-2-yl)pyridin-2-yl)piperazin-1-yl)methyl)-1-((S)-oxetan-2-ylmethyl)-1H-benzo[d]imidazole-6-carboxylic acid] | 4.58 | – |
| N#Cc1cccc2c1CCCN2c1cccc(N2CCN(Cc3nc4ccc(C(=O)O)cc4n3C[C@@H]3CCO3)CC2)n1 [Compound 5, (S)-2-((4-(6-(5-cyano-3,4-dihydroquinolin-1(2H)-yl)pyridin-2-yl)piperazin-1-yl)methyl)-1-(oxetan-2-ylmethyl)-1H-benzo[d]imidazole-6-carboxylic acid] | 315 | – |
| N#Cc1ccc(COc2cccc(C34CCN(Cc5nc6ccc(C(=O)O)cc6n5C[C@@H]5CCO5)CC3C4)n2)c(F)c1 (stereo partly drawn) [Compound 9, 2-((6-(6-((4-cyano-2-fluorobenzyl)oxy)pyridin-2-yl)-3-azabicyclo[4.1.0]heptan-3-yl)methyl)-1-((S)-oxetan-2-ylmethyl)-1H-benzo[d]imidazole-6-carboxylic acid] | 0.476 | – |
| N#Cc1ccc(COc2cccc([C@]34CCN(Cc5nc6ccc(C(=O)O)cc6n5C[C@@H]5CCO5)C[C@H]3C4)n2)c(F)c1 [Compound 9-P2, 2-(((1S,6R)-6-(6-((4-cyano-2-fluorobenzyl)oxy)pyridin-2-yl)-3-azabicyclo[4.1.0]heptan-3-yl)methyl)-1-((S)-oxetan-2-ylmethyl)-1H-benzo[d]imidazole-6-carboxylic acid] | 0.494 | – |
| O=C(O)c1ccc2nc(CN3CCC4(c5cccc(OCc6ccccc6)n5)CC4C3)n(CC3CCO3)c2c1 (stereo not drawn) [Compound 10] | 13.9 | – |
| O=C(O)c1ccc2nc(CN3CCC(c4cccc(C5CCc6ccccc6C5)n4)CC3)n(C[C@@H]3CCO3)c2c1 (stereo partly drawn) [Compound 12, 1-((S)-oxetan-2-ylmethyl)-2-((4-(6-(1,2,3,4-tetrahydronaphthalen-2-yl)pyridin-2-yl)piperidin-1-yl)methyl)-1H-benzo[d]imidazole-6-carboxylic acid] | 124 | – |
| N#Cc1cc(F)c2c(c1)CCN(c1cccc(C3CCN(Cc4nc5ccc(C(=O)O)cc5n4C[C@@H]4CCO4)CC3)n1)C2 [Compound 13, (S)-2-((4-(6-(6-cyano-8-fluoro-3,4-dihydroisoquinolin-2(1H)-yl)pyridin-2-yl)piperidin-1-yl)methyl)-1-(oxetan-2-ylmethyl)-1H-benzo[d]imidazole-6-carboxylic acid] | 0.788 | – |
